Measured values from patent US10617677B2, “Nuclear transport modulators and uses thereof” (Biogen MA Inc., priority 2012, dated 2020).

How the values were obtained:
Z-138 xenograft tumors = assay: Z-138 lymphoma xenograft in SCID mice; format: in vivo
Protocol: Z-138 (ATCC # CRL-3001) mantle cell lymphoma cells were obtained from ATCC. These cells were grown in IMEM medium supplemented with 10% horse serum, 1% penicillin and streptomycin, and 2 mM L-glutamine. […] Twenty-four (24) female CB-17 SCID mice (Charles River Labs strain code 236), aged 5 to 6 weeks were used. The SCID mice were inoculated in the left flank with Z-138 cells in a volume of 0.2 mL, equivalent to 4×10^7 cells per mouse. […] Mice were allocated to […] prior to the initiation of treatment based on tumor volume such that mean tumor volume in each group was within the range of 77 to 92 mm^3. […] Animals were fed with Labdiet® 5001 rodent chow and sterile water ad libitum. […] Animals with weight loss of more than 20% of their starting weight were euthanized. Mice with weight loss of more than 15% of their starting weight were not treated again until weight loss recovered to less than 5% of their starting weight. Any animals with a tumor volume of more than 1500 mm^3 were euthanized. Dosing solutions were prepared fresh on each day of dosing. […] This was prepared by dissolving the lyophilized powder in sterile water.

[1] = system: anti-collagen antibody induced arthritis; assay: Anti-collagen antibody induced mouse model of rheumatoid arthritis (CAIA); format: in vivo, mice
Protocol: Twenty-four (24) male Balb/c mice, aged 6 to 8 weeks were used. […] On study Day 0 (study commencement), all mice were subjected to a 2 mg intravenous injection of ArthritoMAb™ antibody cocktail (MD Biosciences # S1203001) followed by an intraperitoneal injection of LPS ([…]) on study Day 3. […] Treatments were administered once daily on days 4, 6, 8 and 10 for all groups, except where dosing vacations applied. If an animal's weight dropped below 87% of its day 0 starting weight, the animal was not dosed until it gained weight equivalent to 90% or more of day 0 weight.
Arthritis development, clinical signs and body weights were monitored in all mice on study days 0, 3-8, 10 and 12. Observations included changes in skin, fur, eyes, mucous membranes, occurrence of secretions and excretions (e.g., diarrhea) and autonomic activity (e.g., lacrimation, salivation, piloerection, pupil size, unusual respiratory pattern). All paws (front left and right, and rear left and right) of each animal were examined for signs of arthritogenic responses prior to arthritis induction and test item or control item administration on study Day 0 and subsequently on study Days 3-8, 10 and 12 (study termination). Arthritis reactions were scored and recorded according to a 0-4 scale in ascending order of severity, as shown Table 5 below. Paw thickness was also measured using a dial caliper (Kroeplin, Munich, Germany).
The dose administered was calculated based on the assumption that the animals weighed, on average, 20 g. […] Vehicle for the vehicle control group was prepared by dissolving 0.6 g Pluronic and 0.6 g PVP in 100 mL distilled deionised water. The MAb stock solution (10 mg/mL) was supplied by MD Biosciences, Division of Morwell Diagnostics GmbH. LPS was diluted with PBS to achieve the appropriate concentration. Thorough vortexing was required just prior to its injection. […] A fixed volume of 200 μL was administered to each mouse.
Evaluation was primarily based on the mean values for arthritis scoring and paw thickness measurements. Where appropriate, analysis of the data by ANOVA with Tukey post hoc analysis was applied to determine significance of treatment effects.

PMA-induced psoriasis = PMA-induced psoriasis in female BALB/c mice; format: in vivo; details: 10 μM topical, daily
Protocol: Twenty-four (24) female BALB/c mice, aged 6 to 8 weeks with a body weight between 22 and 30 g were used. The mice were randomized into […]. The grouping of animals was as follows: Group I (Naïve; ethanol), Group II (PMA; ethanol), Group III (PMA; […] Twenty (20) μL of PMA (4 μg/20 μL of acetone) was applied topically on the upper surface of pinna of ear of all animals in Group II to Group IV. PMA was applied daily on left ear and on alternate days (M-W-F) on right ear from Day 1 to Day 9. Thirty (30) minutes after application of PMA, vehicle or standard compound (betamethasone) or Compound 2 was applied topically to the ears of animals from different groups. […] Animals were observed daily for a period of 12 days for any treatment related symptoms. Basal ear thickness was recorded in all animals (before application of PMA) using digital screw gauge at time T0 (Day 1). […] Commercially available 100% DMSO (LR Grade) and ethanol (LR Grade) were used to prepare the formulations. PMA was prepared by dissolving 10 mg of PMA in 50.0 mL of acetone. Compound 2 was prepared by dissolving 1.47 mg of Compound 2 in 300 μL of 100% DMSO.

[2] = system: collagen-induced arthritis; assay: Collagen-induced arthritis (CIA) Study No. 2 in Lewis rats; format: in vivo
Protocol: To further investigate the effect of the compounds described herein on inflammation biomarkers, a second CIA model was initiated. In this model, the groups were designated as group A (naïve), group B (model; vehicle-treated), group C (Compound 2 at 5 mg/kg QoD). The rats in groups B and C were immunized intradermally with bovine Type II collagen in IFA on day 0, and a booster injection was given on day 7. Compound 2 was orally administered to rats with CIA after the onset of arthritis (Day 11). CIA development was evaluated via macroscopic scoring and measurements of paw swelling. This was assessed every day for the first 5 days after sensitization (day 7), and then twice per week (Monday and Thursday) until Day 28 using the clinical scoring system described in Table 7 above. In addition, ELISAs for CD45, CRP, CCL2/MCP-1, TNF-α, IL1-β, IL-6, IL-17, and measurements for cathepsin K and elastase were performed 4 days (Day 15 of the study) and 10 days (Day 21 of the study—peak for the disease) after compound treatment and at the very end of the study (Day 28) on all group animals. Additionally, on the last day of the study (Day 28), a few representative animals from each group were subjected to three-dimensional micro-tomodensitometry of calcaneus, and bone erosion in the paws was quantified.
A LUMINEX® assay and ELISA were used to measure the effects of Compound 2 on the levels of pro-inflammatory cytokines and inflammation markers. Synovial fluid was collected on Day 21, after the first immunization, from 2 rats in the model group and 2 rats in the Compound 2-treated group, and at the end of the study from 2 rats in the naïve group, 3 rats in the model group and 3 rats in the Compound 2-treated group.
A LUMINEX® assay was also used to measure the levels of pro-inflammatory cytokines in serum. Serum samples (1 mL of blood per rat) were collected 4 days after compound treatment (Day 15), 10 days after compound treatment (usually at the disease peak—Day 21) and at the end of the study (Day 27).

weight loss (Z-138 xenograft tumors; 15 mg/kg PO MWF): Some weight loss was observed
SMILES: O=C(/C=C\n1cnc(-c2cc(C(F)(F)F)cc(C(F)(F)F)c2)n1)NNC(=O)CN1CCOCC1 [Compound 2, (Z)-3-(3-(3,5-bis(trifluoromethyl)phenyl)-1H-1,2,4-triazol-1-yl)-N′-(2-morpholinoacetyl)acrylohydrazide]
tumor growth relative to vehicle (area under the growth curves, ANOVA) (Z-138 xenograft tumors; Compound 2 15 or 7.5 mg/kg PO MWF, cyclophosphamide 80 mg/kg IP): antitumor effect at both 7.5 mg/kg and 15 mg/kg doses in a dose dependent manner | total arthritis score compared to vehicle ([1]; 4 mg/kg orally, days 6-12): significantly reduced total arthritis scores | anti-arthritic activity (mean arthritis scores, paw thickness) ([1]; 7.5 mg/kg or 4 mg/kg orally): significant anti-arthritic activity | rear paw arthritis score compared to vehicle ([1]; 7.5 mg/kg or 4 mg/kg orally, days 5-12): significantly reduced rear paw arthritis scores | total arthritis score compared to vehicle ([1]; 7.5 mg/kg orally, days 5-12): significantly reduced total arthritis scores | anti-psoriatic activity (PMA-induced psoriasis): statistically significant anti-psoriatic activity | left and right ear disease activity index (DAI) (PMA-induced psoriasis): prominent reduction in PMA-induced increases | left and right ear thickness (PMA-induced psoriasis): prominent reduction in PMA-induced increases | clinical scores compared to vehicle-treated rats ([2]; 5 mg/kg QoD oral): significantly reduced | joint swelling compared to vehicle-treated rats ([2]; 5 mg/kg QoD oral): significantly reduced | bone erosion in the rear paws compared to vehicle-treated rats ([2]; 5 mg/kg QoD oral, Day 28): significantly reduced bone erosion | IL-1β production in serum compared to the model group ([2]; 5 mg/kg QoD, Days 15, 21 and 27): inhibitory effect | C-reactive protein (CRP) in synovial fluid compared to the model group ([2]; 5 mg/kg QoD, Days 21 and 27): inhibitory effects | IL-1β in synovial fluid compared to the model group ([2]; 5 mg/kg QoD, Days 21 and 27): inhibitory effects | IL-6 in synovial fluid compared to the model group ([2]; 5 mg/kg QoD, Days 21 and 27): inhibitory effects | MCP-1 in synovial fluid compared to the model group ([2]; 5 mg/kg QoD, Days 21 and 27): inhibitory effects
